Here are results for four compounds from US20140105891A1, “TREATMENT OF CANCER” (CERULEAN PHARMA INC., priority 2012, published 2014).

Data set [1] relates to H1299 human NSCLC xenograft. Description: H1299 NSCLC xenograft tumor growth delay. The note with it: for median tumor volume (MTV) of survivors: D74 survivors, Gemcitabine 120 mg/kg; for tumor-free survival (TFS): CRLX101 10 mg/kg qwk×3, marketed drugs on optimal preclinical regimens.
Experimental: H1299 cells were obtained from the American Type Culture Collection (ATCC), and the tumor line was maintained by serial engraftment in nude mice.
Body weight was measured daily on Days 1-5, then twice weekly until the completion of the study. Tumor volume was measured twice weekly and each animal was euthanized when the calculated tumor volume reached the 2000 mm^3 endpoint, or on day-88 post implantation, whichever came first.
Data set [2] has as its system A2780 Ovarian Xenograft Tumors. Description: A2780 ovarian xenograft tumor growth / response rate. The format is in vivo, mouse. The settings on record: A2780, Day 42; CRLX101 5 mg/kg IV q7d×3; Bevacizumab 5 mg/kg i.p. biweekly×3; combination at same doses.
Data set [3] relates to HIF-2α. Description: HIF-2α levels in A2780 xenograft after CRLX101 and Bevacizumab (Western blot). The data set is classed as in vivo, mouse. The note with it: CRLX101 5 mg/kg i.v. q7d×2, Bevacizumab 5 mg/kg i.p. Day 1, 4, 8, tumors Day 11. Background: In western blotting, separated proteins are transferred to a membrane and probed.
Experimental: (§1) Tumor samples were collected on Day 11, 72 hours after the last treatment (Day 8 for both drugs) and analyzed for HIF-1α and HIF-2α levels using Western blot.
Data set [4] concerns HIF-1α. Description: HIF-1α levels in A2780 xenograft after CRLX101 and Bevacizumab (Western blot). The data set is classed as in vivo, mouse. The note with it: CRLX101 5 mg/kg i.v. q7d×2, Bevacizumab 5 mg/kg i.p. Day 1, 4, 8, tumors Day 11.
Experimental: as §1

The compound `CC(=O)O[C@@]12CO[C@@H]1C[C@H](O)[C@@]1(C)C(=O)[C@H](O)C3=C(C)[C@@H](OC(=O)[C@H](O)[C@@H](NC(=O)OC(C)(C)C)c4ccccc4)C[C@@](O)([C@@H](OC(=O)c4ccccc4)[C@H]21)C3(C)C` [Docetaxel] had a survival in data set [1] (74 days post first treatment, docetaxel 30 mg/kg qwk×3) of 20%. Further, in data set [1] (Docetaxel 30 mg/kg), the “median tumor volume (MTV) of survivors” value came to 302 mm3. Besides, the “group mean body weight loss” value in data set [1] (Docetaxel 30 mg/kg, on D21) is 9.3%.
On to `Nc1ccn([C@@H]2O[C@H](CO)[C@@H](O)C2(F)F)c(=O)n1` [Gemcitabine], for which the “tumor-free survival (TFS)” value in data set [1] (74 days post first treatment) is recorded as 50%. Further, in data set [1] (Docetaxel 30 mg/kg), the “median tumor volume (MTV) of survivors” value amounted to 0 mm3.
On to `CC[C@@]1(O)C(=O)OCc2c1cc1n(c2=O)Cc2cc3c(CN(C)C)c(O)ccc3nc2-1` [Topotecan], for which the “tumor-free survival (TFS)” value in data set [1] (74 days post first treatment) came to 10%.
In the case of Bevacizumab: antibody against VEGF, the “Partial Response (# of mice)” value in data set [2] is listed as 0 of 10. Besides, the “HIF-2α % of Control” value in data set [3] is on record as 146 % of Control. The “HIF-1α % of Control” value in data set [4] is given as 157 % of Control.
